Measured values taken from patent US8013163B2 (Astex Therapeutics Limited, priority 2005, dated 2011).
Counter-ions that a name gives are not always drawn. Like-named read-outs stand apart in the source and are kept apart here.

Key:
HCT-1 16 cells = test: Anti-proliferative activity (Alamar Blue assay); type: cell-based; conditions: Homo sapiens, HCT-116, 72 hours
Method: The anti-proliferative activities of a compound can be determined by measuring the ability of the compound to inhibition of cell growth in a number of cell lines. Inhibition of cell growth is measured using the Alamar Blue assay (Nociari, M. M, Shalev, A., Benias, P., Russo, C. Journal of Immunological Methods 1998, 213, 157-167). The method is based on the ability of viable cells to reduce resazurin to its fluorescent product resorufin. For each proliferation assay cells are plated onto 96 well plates and allowed to recover for 16 hours prior to the addition of inhibitor compounds for a further 72 hours. At the end of the incubation period 10% (v/v) Alamar Blue is added and incubated for a further 6 hours prior to determination of fluorescent product at […]. In the case of the non-proliferating cell assay cells are maintained at confluence for 96 hour prior to the addition of inhibitor compounds for a further 72 hours. The number of viable cells is determined by Alamar Blue assay as before. Cell lines can be obtained from the ECACC (European Collection of cell Cultures).

[1] = Solubility of the mesylate salt in buffered solutions (HPLC assay); type: physicochemical; conditions: acetate buffer, pH 4.6, aqueous buffer, thermodynamic from solid
Method: An investigation into the solubility of the mesylate salt of Example 1 in various buffering systems was carried out at ambient temperature and at 4° C. In a first set of experiments, the buffers selected were 200 mM succinate pH 5.5, citrate pH 5.5, and Tris/maleate pH 5.5, 6.5 and 7.5. A second set of buffers utilised included a 200 mM acetate pH 4.6, glycine/methanesulphonic acid pH 4.6 and glycine pH 5.5.
This buffer was prepared by dissolving 4.44 g sodium acetate in 200 ml water. A volume (50 ml) of this solution was titrated with 0.20 M acetic acid solution ([…] in 200 ml water) and made up to 200 ml with water. A 0.20 M acetate buffer solution of pH 4.6 was prepared.
With each pH and buffer system, two experiments were performed, one at ambient temperature and one at 4° C. In each experiment, to 4.0 ml buffer solution was added a nominal 220 mg of the mesylate salt and the solution mixture was stirred. The stirring was stopped after 3 hours, the solution filtered through a PVDF 0.22 μm membrane filter, diluted in sample diluent and assayed for mesylate salt content by HPLC. Throughout the experiments, the mesylate salt content of each sample was calculated using single point calibration each time.

[2] = Exposure at 40° C./approximately 75% relative humidity with XRPD and HPLC analysis; type: physicochemical; conditions: approximately 75% relative humidity
Method: (ii) In a separate test, approximately 10 mg of the mesylate salt as prepared above was pressed flat onto a glass slide to achieve a high surface area and placed in a dessicator containing a saturated aqueous solution of sodium chloride. This in turn was placed in an incubator held at 40° C. to provide an atmosphere of approximately 75% relative humidity. The sample was removed on 8 and 18 days and the XRPD profiles of the sample at these times were compared to the XRPD profile of the salt prior to commencement of the test.

[3] = Stability trial of methanesulphonate salt at 40° C./75% relative humidity for six months; type: physicochemical
Method: Samples of the methanesulphonate salt of Example 1 were stored in sealed bags inside a sealed container at a temperature of 40° C. and in an atmosphere of 75% relative humidity for a period of six months. At periods of 1 month, 3 months and 6 months, various tests were carried out to determine whether any changes to the purity or physical state of the salt had occurred. The tests were as follows:
(a) Visual examination of the colour and physical appearance of the salt.
(b) Fourier Transform Infra Red (FTIR) spectroscopy—comparison with reference standard spectrum.
(c) Determination of melting point by differential scanning calorimetry (DSC).
(d) Determination of water content by a coulometric method using the coulometric reagent AKX.
(e) Analysis of impurities by HPLC.

[4] = Gravimetric Vapour Sorption (GVS) study; type: physicochemical
Method: (i) Gravimetric Vapour Sorption (GVS) studies were carried out to investigate the behaviour of the mesylate salt in conditions of varying humidity. The mesylate salt used in the studies was prepared from the hydrochloride salt (see Example 11) by the following method.
Samples of the mesylate salt produced by the method described above were run on a Hiden IGASorp moisture sorption analyser running CFRSorp software. The sample sizes were typically 10 mg. Moisture adsorption-desorption isotherms were performed as set out in the following table:
A double cycle was run using a sample of 12.92 mg of the mesylate salt. […] However, provided that the salt is not exposed to relative humidities of more than 80%, the water uptake is less than 2.6% w/w. Importantly, water which was taken up during the adsorption stage was lost during the desorption state indicating the uptake of water is a surface effect.

[5] = 40° C./75% relative humidity, t = 0
[6] = 40° C./75% relative humidity, t = 1 month
[7] = 40° C./75% relative humidity, t = 3 months
[8] = 40° C./75% relative humidity, t = 6 months

SMILES: O=C(NC1CCNCC1)c1n[nH]cc1NC(=O)c1c(Cl)cccc1Cl [mesylate salt, 4-(2,6-dichlorobenzoylamino)-1H-pyrazole-3-carboxylic acid piperidin-4-ylamide methanesulphonate]
- IC50 (HCT-1 16 cells): 0.11 µM
- solubility at 3 h ([1]; 4 °C, acetate buffer 200 mM at 4° C., initial pH 4.6, final pH 4.6, read-out: [mesylate salt] solubility): 37.2 mg/mL
- solubility at 3 h ([1]; acetate buffer 200 mM at ambient temperature, initial pH 4.6, final pH 4.5, read-out: [Mesylate salt] solubility): 30.7 mg/mL
- solubility at 3 h ([1]; acetic acid/sodium acetate buffer, solution pH approximately 4.6, read-out: solubility): ~35 mg/mL
- solubility at 3 h ([1]; in acetate buffer, read-out: solubility of the mesylate salt): 32 to 37 mg/mL
- changes in XRPD profile ([2]; 8 and 18 days): No changes were observed
- degradation by HPLC analysis ([2]; up to 18 days): no degradation
- overall stability ([3]; 40° C., 75% relative humidity, six months): good stability
- (a) Description [3, 5]: Off-white solid
- (b) Identity by FTIR [3, 5]: Conforms to
- (c) Melting point by DSC, melting endotherm [3, 5]: 367.7 °C
- (d) Water content [3, 5]: <0.1% w/w
- (e) Impurities (by HPLC) Total impurities [3, 5]: 0.52% area
- Chemical purity [3, 5]: 99.48% area
- Impurity RRT 0.812 (by HPLC) [3, 5]: 0.07% area
- Impurity RRT 1.196 (by HPLC) [3, 5]: 0.01% area
- Impurity RRT 1.226 (by HPLC) [3, 5]: 0.02% area
- Impurity RRT 1.303 (by HPLC) [3, 5]: 0.02% area
- Impurity RRT 1.318 (by HPLC) [3, 5]: 0.03% area
- Impurity RRT 1.484 (by HPLC) [3, 5]: 0.15% area
- Impurity RRT 1.526 (by HPLC) [3, 5]: 0.03% area
- Impurity RRT 1.680 (by HPLC) [3, 5]: 0.19% area
- (a) Description [3, 6]: Off-white solid
- (b) Identity by FTIR [3, 6]: Conforms to
- (c) Melting point by DSC, melting endotherm [3, 6]: 368.3 °C
- (d) Water content [3, 6]: <0.1% w/w
- (e) Impurities (by HPLC) Total impurities [3, 6]: 0.49% area
- Chemical purity [3, 6]: 99.51% area
- Impurity RRT 0.812 (by HPLC) [3, 6]: 0.07% area
- Impurity RRT 1.196 (by HPLC) [3, 6]: 0.02% area
- Impurity RRT 1.303 (by HPLC) [3, 6]: 0.06% area
- Impurity RRT 1.484 (by HPLC) [3, 6]: 0.17% area
- Impurity RRT 1.680 (by HPLC) [3, 6]: 0.17% area
- (a) Description [3, 7]: Off-white solid
- (b) Identity by FTIR [3, 7]: Conforms to
- (c) Melting point by DSC, melting endotherm [3, 7]: 375.5 °C
- (d) Water content [3, 7]: <0.1% w/w
- (e) Impurities (by HPLC) Total impurities [3, 7]: 0.50% area
- Chemical purity [3, 7]: 99.50% area
- Impurity RRT 0.812 (by HPLC) [3, 7]: 0.06% area
- Impurity RRT 1.226 (by HPLC) [3, 7]: 0.02% area
- Impurity RRT 1.318 (by HPLC) [3, 7]: 0.04% area
- Impurity RRT 1.484 (by HPLC) [3, 7]: 0.17% area
- Impurity RRT 1.526 (by HPLC) [3, 7]: 0.04% area
- Impurity RRT 1.680 (by HPLC) [3, 7]: 0.17% area
- (a) Description [3, 8]: Off-white solid
- (b) Identity by FTIR [3, 8]: Conforms to
- (c) Melting point by DSC, melting endotherm [3, 8]: 369.1 °C
- (d) Water content [3, 8]: <0.1% w/w
- (e) Impurities (by HPLC) Total impurities [3, 8]: 0.50% area
- Chemical purity [3, 8]: 99.50% area
- Impurity RRT 0.812 (by HPLC) [3, 8]: 0.06% area
- Impurity RRT 1.226 (by HPLC) [3, 8]: 0.02% area
- Impurity RRT 1.318 (by HPLC) [3, 8]: 0.04% area
- Impurity RRT 1.484 (by HPLC) [3, 8]: 0.17% area
- Impurity RRT 1.526 (by HPLC) [3, 8]: 0.03% area
- Impurity RRT 1.680 (by HPLC) [3, 8]: 0.17% area
- Impurity RRT 1.682 (by HPLC) [3, 8]: 0.01% area
- water uptake (GVS) ([4]; not exposed to relative humidities of more than 80%): less than 2.6 % w/w
- water picked up (GVS isotherm) ([4]; over the range 0% relative humidity to 90% relative humidity): approximately 4 % in weight
